Patent publication US9884842B2, “Combretastatin analogs” (The Board of Trustees of the University of Arkansas, priority 2013, dated 2018)

What follows are compounds tested on NCI-H23 (assay: NCI growth inhibition and cytotoxicity screen, Lung Cancer panel). Details: Homo sapiens, NCI-H23, read-out: LC50.

| SMILES | CC50 |
| --- | --- |
| COc1cc(/C=C/c2cc3ccccc3o2)cc(OC)c1OC [Formula (I)(c)] | > 100000 nM |

What follows are compounds tested on COLO 205 (assay: NCI growth inhibition and cytotoxicity screen, Colon Cancer panel). Details: Homo sapiens, COLO 205.

| SMILES | GI50 |
| --- | --- |
| COc1cc(/C=C/c2cc3ccccc3o2)cc(OC)c1OC [Formula (I)(c)] | 0.4 nM |

Same assay, conditions: Homo sapiens, COLO 205, read-out: LC50

| SMILES | CC50 |
| --- | --- |
| COc1cc(/C=C/c2cc3ccccc3o2)cc(OC)c1OC [Formula (I)(c)] | 19500 nM |

The compounds below were run on HCT-116 in the same assay as above. Details: Homo sapiens, HCT-116.

| SMILES | GI50 |
| --- | --- |
| COc1cc(/C=C/c2cc3ccccc3o2)cc(OC)c1OC [Formula (I)(c)] | 0.522 nM |

Same assay, conditions: Homo sapiens, HCT-116, read-out: LC50

| SMILES | CC50 |
| --- | --- |
| COc1cc(/C=C/c2cc3ccccc3o2)cc(OC)c1OC [Formula (I)(c)] | 77000 nM |

These compounds were tested on HCT-15 in the same assay as above. Details: Homo sapiens, HCT-15.

| SMILES | GI50 |
| --- | --- |
| COc1cc(/C=C/c2cc3ccccc3o2)cc(OC)c1OC [Formula (I)(c)] | 0.4 nM |

Same assay, conditions: Homo sapiens, HCT-15, read-out: LC50

| SMILES | CC50 |
| --- | --- |
| COc1cc(/C=C/c2cc3ccccc3o2)cc(OC)c1OC [Formula (I)(c)] | > 100000 nM |

Each compound was assayed on HT29 in the same assay as above. Details: Homo sapiens, HT-29.

| SMILES | GI50 |
| --- | --- |
| COc1cc(/C=C/c2cc3ccccc3o2)cc(OC)c1OC [Formula (I)(c)] | 0.37 nM |

Same assay, conditions: Homo sapiens, HT-29, read-out: LC50

| SMILES | CC50 |
| --- | --- |
| COc1cc(/C=C/c2cc3ccccc3o2)cc(OC)c1OC [Formula (I)(c)] | > 100000 nM |

What follows are compounds tested on KM12 in the same assay as above. Details: Homo sapiens, KM12.

| SMILES | GI50 |
| --- | --- |
| COc1cc(/C=C/c2cc3ccccc3o2)cc(OC)c1OC [Formula (I)(c)] | 0.5 nM |

Same assay, conditions: Homo sapiens, KM12, read-out: LC50

| SMILES | CC50 |
| --- | --- |
| COc1cc(/C=C/c2cc3ccccc3o2)cc(OC)c1OC [Formula (I)(c)] | > 100000 nM |

These compounds were tested on CAKI-1 (assay: NCI growth inhibition and cytotoxicity screen, Renal Cancer panel). Details: Homo sapiens, CAKI-1.

| SMILES | GI50 |
| --- | --- |
| COc1cc(/C=C/c2cc3ccccc3o2)cc(OC)c1OC [Formula (I)(c)] | 0.58 nM |

Same assay, conditions: Homo sapiens, CAKI-1, read-out: LC50

| SMILES | CC50 |
| --- | --- |
| COc1cc(/C=C/c2cc3ccccc3o2)cc(OC)c1OC [Formula (I)(c)] | > 100000 nM |

The compounds below were run on RXF 393 in the same assay as above. Details: Homo sapiens, RXF 393.

| SMILES | GI50 |
| --- | --- |
| COc1cc(/C=C/c2cc3ccccc3o2)cc(OC)c1OC [Formula (I)(c)] | 0.32 nM |

Same assay, conditions: Homo sapiens, RXF 393, read-out: LC50

| SMILES | CC50 |
| --- | --- |
| COc1cc(/C=C/c2cc3ccccc3o2)cc(OC)c1OC [Formula (I)(c)] | > 100000 nM |

What follows are compounds tested on UO-31 in the same assay as above. Details: Homo sapiens, UO-31.

| SMILES | GI50 |
| --- | --- |
| COc1cc(/C=C/c2cc3ccccc3o2)cc(OC)c1OC [Formula (I)(c)] | 1.15 nM |

Same assay, conditions: Homo sapiens, UO-31, read-out: LC50

| SMILES | CC50 |
| --- | --- |
| COc1cc(/C=C/c2cc3ccccc3o2)cc(OC)c1OC [Formula (I)(c)] | > 100000 nM |

What follows are compounds tested on MCF7 (assay: NCI growth inhibition and cytotoxicity screen, Breast Cancer panel). Details: Homo sapiens, MCF7.

| SMILES | GI50 |
| --- | --- |
| COc1cc(/C=C/c2cc3ccccc3o2)cc(OC)c1OC [Formula (I)(c)] | 0.37 nM |

Same assay, conditions: Homo sapiens, MCF7, read-out: LC50

| SMILES | CC50 |
| --- | --- |
| COc1cc(/C=C/c2cc3ccccc3o2)cc(OC)c1OC [Formula (I)(c)] | > 100000 nM |

What follows are compounds tested on HS 578T in the same assay as above. Details: Homo sapiens.

| SMILES | GI50 |
| --- | --- |
| COc1cc(/C=C/c2cc3ccccc3o2)cc(OC)c1OC [Formula (I)(c)] | 0.49 nM |

Same assay, conditions: Homo sapiens, read-out: LC50

| SMILES | CC50 |
| --- | --- |
| COc1cc(/C=C/c2cc3ccccc3o2)cc(OC)c1OC [Formula (I)(c)] | > 100000 nM |

These compounds were tested on OVCAR-8 (assay: NCI growth inhibition and cytotoxicity screen, Ovarian Cancer panel). Details: Homo sapiens, OVCAR-8.

| SMILES | GI50 |
| --- | --- |
| COc1cc(/C=C/c2cc3ccccc3o2)cc(OC)c1OC [Formula (I)(c)] | 2.05 nM |

Same assay, conditions: Homo sapiens, OVCAR-8, read-out: LC50

| SMILES | CC50 |
| --- | --- |
| COc1cc(/C=C/c2cc3ccccc3o2)cc(OC)c1OC [Formula (I)(c)] | > 100000 nM |

These compounds were tested on NCI/ADR-RES in the same assay as above. Details: Homo sapiens.

| SMILES | GI50 |
| --- | --- |
| COc1cc(/C=C/c2cc3ccccc3o2)cc(OC)c1OC [Formula (I)(c)] | 0.51 nM |

Same assay, conditions: Homo sapiens, read-out: LC50

| SMILES | CC50 |
| --- | --- |
| COc1cc(/C=C/c2cc3ccccc3o2)cc(OC)c1OC [Formula (I)(c)] | > 100000 nM |

These compounds were tested on PC-3 (assay: NCI growth inhibition and cytotoxicity screen, Prostate Cancer panel). Details: Homo sapiens, PC-3.

| SMILES | GI50 |
| --- | --- |
| COc1cc(/C=C/c2cc3ccccc3o2)cc(OC)c1OC [Formula (I)(c)] | 0.52 nM |

Same assay, conditions: Homo sapiens, PC-3, read-out: LC50

| SMILES | CC50 |
| --- | --- |
| COc1cc(/C=C/c2cc3ccccc3o2)cc(OC)c1OC [Formula (I)(c)] | > 100000 nM |
